Laboratory results from patent US20240270740A1, “INHIBITORS OF CYCLIC GMP-AMP SYNTHASE AND USES THEREOF” (Ventus Therapeutics U.S., Inc., priority 2022, published 2024).
pIC50: −log10 of the molar value.

Experiments:
[1] = target: T1, hcGAS (Homo sapiens, UniProt Q8N884); assay: hcGAS Kinase-Glo assay (ATP depletion); assay type: biochemical; conditions: 40 nM hcGAS, 100 μM ATP, 100 μM GTP, 25 nM dsDNA, 3 h incubation
Outline: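 Human cGAS activity measured indirectly as ATP depletion by Kinase-Glo luminescence, following the Lama et al. method with modified conditions. Output is IC50, binned into potency categories.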

[2] = target: T1, hcGAS; assay: hcGAS LCMS assay (direct measurement of cGAMP production); assay type: biochemical; conditions: 0.5 nM hcGAS, 100 μM ATP, 100 μM GTP, 25 nM dsDNA, 4 h incubation
Outline: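 Direct LC/MS readout of cGAMP formed: 4-h enzyme–substrate incubation with compound, stopped by acetonitrile/water quench carrying isotope-labelled cGAMP (0.15 mM) as standard. Potency reported as IC50 ranges.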

T1 sequence (Q8N884 whole entry): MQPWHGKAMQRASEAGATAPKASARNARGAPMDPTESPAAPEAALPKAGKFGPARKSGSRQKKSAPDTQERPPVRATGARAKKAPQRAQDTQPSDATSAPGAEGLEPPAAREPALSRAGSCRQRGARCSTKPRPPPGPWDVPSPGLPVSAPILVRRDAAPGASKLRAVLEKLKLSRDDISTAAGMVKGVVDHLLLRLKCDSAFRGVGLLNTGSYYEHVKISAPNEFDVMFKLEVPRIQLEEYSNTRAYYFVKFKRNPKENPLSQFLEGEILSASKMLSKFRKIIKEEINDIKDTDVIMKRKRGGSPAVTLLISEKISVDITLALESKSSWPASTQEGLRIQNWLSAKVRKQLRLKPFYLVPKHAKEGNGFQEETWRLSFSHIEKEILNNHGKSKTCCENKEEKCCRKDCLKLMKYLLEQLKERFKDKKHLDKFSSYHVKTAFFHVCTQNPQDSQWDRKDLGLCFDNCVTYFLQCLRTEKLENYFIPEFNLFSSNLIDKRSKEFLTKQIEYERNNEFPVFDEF

| SMILES | pIC50 [1] | pIC50 [2] |
| --- | --- | --- |
| COc1c(NC23CC(CC#N)(C2)C3)cc(C(=O)Nc2nnc(-n3nccc3C)s2)oc1=O [Compound 116, 4-((3-(cyanomethyl)bicyclo[1.1.1]pentan-1-yl)amino)-3-methoxy-N-(5-(5-methyl-1H-pyrazol-1-yl)-1,3,4-thiadiazol-2-yl)-2-oxo-2H-pyran-6-carboxamide] | 7.52 to 8.00 | 7.70 to 8.30 |
| COc1c(NC23CC(C(C)(C)O)(C2)C3)cc(C(=O)Nc2nnc(-n3nccc3C)s2)oc1=O [Compound 117, 4-((3-(2-hydroxypropan-2-yl)bicyclo[1.1.1]pentan-1-yl)amino)-3-methoxy-N-(5-(5-methyl-1H-pyrazol-1-yl)-1,3,4-thiadiazol-2-yl)-2-oxo-2H-pyran-6-carboxamide] | 7.52 to 8.00 | 7.70 to 8.30 |
| COc1c(NCCC#N)cc(C(=O)Nc2nnc(-n3nccc3C)s2)oc1=O [Compound 176, 4-((2-cyanoethyl)amino)-3-methoxy-N-(5-(5-methyl-1H-pyrazol-1-yl)-1,3,4-thiadiazol-2-yl)-2-oxo-2H-pyran-6-carboxamide] | 7.52 to 8.00 | 7.70 to 8.30 |
| COc1c(NCc2ccccc2)cc(C(=O)Nc2nnc(-n3nccc3C)s2)oc1=O [Compound 103, 4-(benzylamino)-3-methoxy-N-(5-(5-methyl-1H-pyrazol-1-yl)-1,3,4-thiadiazol-2-yl)-2-oxo-2H-pyran-6-carboxamide] | 7.00 to 7.52 | 7.70 to 8.30 |
| COc1c(N2C[C@H](O)[C@H](OC)C2)cc(C(=O)Nc2nnc(-n3nccc3C)s2)oc1=O (racemic) [Rac-68, 4-((3S,4R)-3-hydroxy-4-methoxypyrrolidin-1-yl)-3-methoxy-N-(5-(5-methyl-1H-pyrazol-1-yl)-1,3,4-thiadiazol-2-yl)-2-oxo-2H-pyran-6-carboxamide] | 7.52 to 8.00 | 7.70 to 8.30 |
| COCCNc1cc(C(=O)Nc2nnc(-c3cscc3Cl)s2)oc(=O)c1OC [Compound 136, N-(5-(4-chlorothiophen-3-yl)-1,3,4-thiadiazol-2-yl)-3-methoxy-4-((2-methoxyethyl)amino)-2-oxo-2H-pyran-6-carboxamide] | 7.52 to 8.00 | 7.70 to 8.30 |
